ChEMBL document CHEMBL1133079, “Synthesis and antibacterial activity of novel 6-O-substituted erythromycin A derivatives” (2000)
In brackets after ≈: the same amount, converted by molar mass.

How the values were obtained:
Haemophilus influenzae = test: In vitro minimum inhibitory concentration against Haemophilus influenzae DILL using standard agar dilution method; assay type: functional
Staphylococcus aureus [1] = test: In vitro minimum inhibitory concentration against Staphylococcus aureus A5177 using standard agar dilution method; assay type: functional
Streptococcus pyogenes [2] = test: In vitro minimum inhibitory concentration against Streptococcus pyogenes 930 using standard agar dilution method; assay type: functional
Streptococcus pyogenes [3] = test: In vitro minimum inhibitory concentration against Streptococcus pyogenes EES61 using standard agar dilution method; assay type: functional
Streptococcus pyogenes [4] = test: In vitro minimum inhibitory concentration against Streptococcus pyogenes PIU 2548 using standard agar dilution method; assay type: functional
Staphylococcus aureus [5] = test: In vitro minimum inhibitory concentration against Staphylococcus aureus 6538P using standard agar dilution method
Staphylococcus aureus [6] = test: In vitro minimum inhibitory concentration against Staphylococcus aureus 6538P using standard agar dilution method; assay type: functional
Staphylococcus aureus [7] = test: In vitro minimum inhibitory concentration against Staphylococcus aureus A5177.; assay type: functional
Streptococcus pneumoniae [8] = test: In vitro minimum inhibitory concentration against Streptococcus pneumoniae 5649.; assay type: functional
Streptococcus pneumoniae [9] = test: In vitro minimum inhibitory concentration against Streptococcus pneumoniae 5737.; assay type: functional
Streptococcus pneumoniae [10] = test: In vitro minimum inhibitory concentration against Streptococcus pneumoniae ATCC 6303.; assay type: functional

| Compound | MIC (Haemophilus influenzae) | MIC (Staphylococcus aureus [1]) | MIC (Streptococcus pyogenes [2]) | MIC (Streptococcus pyogenes [3]) | MIC (Streptococcus pyogenes [4]) | MIC (Staphylococcus aureus [5]) | MIC (Staphylococcus aureus [6]) | MIC (Staphylococcus aureus [7]) | MIC (Streptococcus pneumoniae [8]) | MIC (Streptococcus pneumoniae [9]) | MIC (Streptococcus pneumoniae [10]) |
| --- | --- | --- | --- | --- | --- | --- | --- | --- | --- | --- | --- |
| CCCO[C@@]1(C)C[C@@H](C)C(=O)[C@H](C)[C@@H](O)[C@](C)(O)[C@@H](CC)OC(=O)[C@H](C)[C@@H](O[C@H]2C[C@@](C)(OC)[C@@H](O)[C@H](C)O2)[C@H](C)[C@H]1O[C@@H]1O[C@H](C)C[C@H](N(C)C)[C@H]1O | 32 µg/mL (≈ 41.2 µM) | 25 µg/mL (≈ 32.2 µM) | > 128 µg/mL | 0.05 µg/mL (≈ 0.0644 µM) | 64 µg/mL (≈ 82.5 µM) | 3.1 µg/mL (≈ 3.99 µM) | – | – | – | – | – |
| CC[C@H]1OC(=O)C(C)[C@@H](O[C@H]2C[C@@](C)(OC)[C@@H](O)[C@H](C)O2)[C@H](C)[C@@H](O[C@@H]2O[C@H](C)C[C@H](N(C)C)[C@H]2O)[C@@](C)(OC/C=N/Oc2ccccc2)C[C@@H](C)C(=O)[C@H](C)[C@@H](O)[C@]1(C)O (single isomer, unassigned) | 4 µg/mL (≈ 4.61 µM) | – | 128 µg/mL (≈ 148 µM) | 0.008 µg/mL (≈ 0.00923 µM) | 32 µg/mL (≈ 36.9 µM) | – | 0.2 µg/mL (≈ 0.231 µM) | 3.1 µg/mL (≈ 3.58 µM) | 16 µg/mL (≈ 18.5 µM) | 128 µg/mL (≈ 148 µM) | 0.008 µg/mL (≈ 0.00923 µM) |
| CC[C@H]1OC(=O)[C@H](C)[C@@H](O[C@H]2C[C@@](C)(OC)[C@@H](O)[C@H](C)O2)[C@H](C)[C@@H](O[C@@H]2O[C@H](C)C[C@H](N(C)C)[C@H]2O)[C@@](C)(OCC(O)CNCCc2ccccc2)C[C@@H](C)C(=O)[C@H](C)[C@@H](O)[C@]1(C)O (some centres not stated) | 4 µg/mL (≈ 4.39 µM) | – | > 64 µg/mL | 0.03 µg/mL (≈ 0.0329 µM) | 16 µg/mL (≈ 17.6 µM) | – | 0.2 µg/mL (≈ 0.219 µM) | 6.2 µg/mL (≈ 6.8 µM) | 32 µg/mL (≈ 35.1 µM) | 32 µg/mL (≈ 35.1 µM) | 0.008 µg/mL (≈ 0.00878 µM) |
| CC[C@H]1OC(=O)[C@H](C)[C@@H](O[C@H]2C[C@@](C)(OC)[C@@H](O)[C@H](C)O2)[C@H](C)[C@@H](O[C@@H]2O[C@H](C)C[C@H](N(C)C)[C@H]2O)[C@@](C)(OC/C=C/c2cnc3ccccc3c2)C[C@@H](C)C(=O)[C@H](C)[C@@H](O)[C@]1(C)O | 8 µg/mL (≈ 8.88 µM) | – | 64 µg/mL (≈ 71 µM) | 0.06 µg/mL (≈ 0.0666 µM) | 4 µg/mL (≈ 4.44 µM) | – | 0.2 µg/mL (≈ 0.222 µM) | 3.1 µg/mL (≈ 3.44 µM) | 4 µg/mL (≈ 4.44 µM) | 128 µg/mL (≈ 142 µM) | 0.06 µg/mL (≈ 0.0666 µM) |
| CC[C@H]1OC(=O)[C@H](C)[C@@H](O[C@H]2C[C@@](C)(OC)[C@@H](O)[C@H](C)O2)[C@H](C)[C@@H](O[C@@H]2O[C@H](C)C[C@H](N(C)C)[C@H]2O)[C@@](C)(OCCO)C[C@@H](C)C(=O)[C@H](C)[C@@H](O)[C@]1(C)O | 8 µg/mL (≈ 10.3 µM) | – | > 64 µg/mL | 0.125 µg/mL (≈ 0.161 µM) | 64 µg/mL (≈ 82.3 µM) | – | 0.39 µg/mL (≈ 0.501 µM) | 6.2 µg/mL (≈ 7.97 µM) | 32 µg/mL (≈ 41.1 µM) | > 64 µg/mL | 0.125 µg/mL (≈ 0.161 µM) |
| CC[C@H]1OC(=O)[C@H](C)[C@@H](O[C@H]2C[C@@](C)(OC)[C@@H](O)[C@H](C)O2)[C@H](C)[C@@H](O[C@@H]2O[C@H](C)C[C@H](N(C)C)[C@H]2O)[C@@](C)(OC/C=C/c2cccc3ccccc23)C[C@@H](C)C(=O)[C@H](C)[C@@H](O)[C@]1(C)O | 4 µg/mL (≈ 4.44 µM) | – | 8 µg/mL (≈ 8.89 µM) | 0.06 µg/mL (≈ 0.0667 µM) | 8 µg/mL (≈ 8.89 µM) | – | 0.78 µg/mL (≈ 0.867 µM) | 12.5 µg/mL (≈ 13.9 µM) | 16 µg/mL (≈ 17.8 µM) | 8 µg/mL (≈ 8.89 µM) | 0.25 µg/mL (≈ 0.278 µM) |
| CC[C@H]1OC(=O)[C@H](C)[C@@H](O[C@H]2C[C@@](C)(OC)[C@@H](O)[C@H](C)O2)[C@H](C)[C@@H](O[C@@H]2O[C@H](C)C[C@H](N(C)C)[C@H]2O)[C@@](C)(OC/C=N/OC)C[C@@H](C)C(=O)[C@H](C)[C@@H](O)[C@]1(C)O | 16 µg/mL (≈ 19.9 µM) | – | > 128 µg/mL | 0.125 µg/mL (≈ 0.155 µM) | 64 µg/mL (≈ 79.5 µM) | – | 0.78 µg/mL (≈ 0.969 µM) | 25 µg/mL (≈ 31.1 µM) | 32 µg/mL (≈ 39.8 µM) | > 128 µg/mL | 0.125 µg/mL (≈ 0.155 µM) |
| CC[C@H]1OC(=O)[C@H](C)[C@@H](O[C@H]2C[C@@](C)(OC)[C@@H](O)[C@H](C)O2)[C@H](C)[C@@H](O[C@@H]2O[C@H](C)C[C@H](N(C)C)[C@H]2O)[C@@](C)(OC/C=N/Nc2ccccn2)C[C@@H](C)C(=O)[C@H](C)[C@@H](O)[C@]1(C)O | 8 µg/mL (≈ 9.23 µM) | – | > 128 µg/mL | 0.125 µg/mL (≈ 0.144 µM) | 128 µg/mL (≈ 148 µM) | – | 0.78 µg/mL (≈ 0.9 µM) | 25 µg/mL (≈ 28.8 µM) | 64 µg/mL (≈ 73.8 µM) | > 128 µg/mL | 0.25 µg/mL (≈ 0.288 µM) |
| CC[C@H]1OC(=O)[C@H](C)[C@@H](O[C@H]2C[C@@](C)(OC)[C@@H](O)[C@H](C)O2)[C@H](C)[C@@H](O[C@@H]2O[C@H](C)C[C@H](N(C)C)[C@H]2O)[C@@](C)(OC/C=N/NC)C[C@@H](C)C(=O)[C@H](C)[C@@H](O)[C@]1(C)O | 8 µg/mL (≈ 9.95 µM) | – | > 128 µg/mL | 0.06 µg/mL (≈ 0.0746 µM) | 128 µg/mL (≈ 159 µM) | – | 0.78 µg/mL (≈ 0.97 µM) | 25 µg/mL (≈ 31.1 µM) | 64 µg/mL (≈ 79.6 µM) | > 128 µg/mL | 0.125 µg/mL (≈ 0.155 µM) |
| CC[C@H]1OC(=O)[C@H](C)[C@@H](O[C@H]2C[C@@](C)(OC)[C@@H](O)[C@H](C)O2)[C@H](C)[C@@H](O[C@@H]2O[C@H](C)C[C@H](N(C)C)[C@H]2O)[C@@](C)(OC/C=C/c2ccccc2)C[C@@H](C)C(=O)[C@H](C)[C@@H](O)[C@]1(C)O | 4 µg/mL (≈ 4.71 µM) | – | 32 µg/mL (≈ 37.6 µM) | 0.03 µg/mL (≈ 0.0353 µM) | 16 µg/mL (≈ 18.8 µM) | – | 0.39 µg/mL (≈ 0.459 µM) | 6.2 µg/mL (≈ 7.29 µM) | 4 µg/mL (≈ 4.71 µM) | 32 µg/mL (≈ 37.6 µM) | 0.06 µg/mL (≈ 0.0706 µM) |
